Assays:
Huh-7 [1] = assay: Inhibition of HCV genotype-1a NS5A infected in human HuH7 cells by luciferase reporter gene assay; format: cell-based; conditions: Hepatitis C virus subtype 1a
[2] = system: T1, Nonstructural protein 5A (Hepatitis C virus), Q5L478 [Y93H]; assay: Inhibition of HCV genotype-1a NS5A Y93H mutant infected in human HuH7 cells by luciferase reporter gene assay; format: cell-based; conditions: Hepatitis C virus subtype 1a; Huh-7
T1 sequence (whole entry): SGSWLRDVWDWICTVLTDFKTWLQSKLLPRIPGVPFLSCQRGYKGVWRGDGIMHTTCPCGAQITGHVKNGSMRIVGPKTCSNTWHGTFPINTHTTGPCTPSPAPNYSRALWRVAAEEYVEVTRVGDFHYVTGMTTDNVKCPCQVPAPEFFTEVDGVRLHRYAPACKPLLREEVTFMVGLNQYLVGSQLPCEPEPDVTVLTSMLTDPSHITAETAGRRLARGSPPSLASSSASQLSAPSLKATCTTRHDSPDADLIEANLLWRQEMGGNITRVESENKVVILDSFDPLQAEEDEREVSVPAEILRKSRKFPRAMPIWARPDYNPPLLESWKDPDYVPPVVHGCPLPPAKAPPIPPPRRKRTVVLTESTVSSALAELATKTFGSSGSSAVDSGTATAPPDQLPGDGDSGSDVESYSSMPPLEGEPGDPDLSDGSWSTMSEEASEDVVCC

Huh-7 [3] = assay: Inhibition of HCV genotype-2b NS5A harboring methionine at position 31 infected in human HuH7 cells by luciferase reporter gene assay; format: cell-based; conditions: Hepatitis C virus subtype 2b
[4] = system: Nonstructural protein 5A (Hepatitis C virus), Q5L478 [UNDEFINED MUTATION]; assay: Inhibition of HCV genotype-1a NS5A L31V mutant infected in human HuH7 cells by luciferase reporter gene assay; format: cell-based; conditions: Hepatitis C virus subtype 1a; Huh-7
Huh-7 [5] = assay: Inhibition of HCV genotype-3a NS5A infected in human HuH7 cells by luciferase reporter gene assay; format: cell-based; conditions: Hepatitis C virus subtype 3a
Huh-7 [6] = assay: Inhibition of HCV genotype-4a NS5A infected in human HuH7 cells by luciferase reporter gene assay; format: cell-based; conditions: Hepatitis C virus subtype 4a
[7] = Plasma clearance in rat at 2 mg/kg, iv measured after 24 hrs by LC/MS method; format: ADME, organism-based
[8] = Half life in rat at 2 mg/kg, iv by LC/MS method; format: ADME, organism-based; conditions: in vivo
[9] = AUC in rat at 10 mg/kg, po measured after 24 hrs by LC/MS method; format: ADME, organism-based; design: time < 24 hr, dose 10 mg/kg, route oral; conditions: in vivo
[10] = Drug uptake in rat at 10 mg/kg, po measured at 24 hrs post dose by LC/MS method; format: ADME, organism-based; conditions: in vivo, read-out: Drug uptake
[11] = Oral bioavailability in rat at 10 mg/kg measured after 24 hrs by LC/MS method; format: ADME, organism-based; conditions: in vivo
[12] = Plasma clearance in dog at 1 mg/kg, iv measured after 24 hrs by LC/MS method; format: ADME, organism-based, Canis lupus familiaris
[13] = Half life in dog at 1 mg/kg, iv by LC/MS method; format: ADME, organism-based, Canis lupus familiaris; conditions: in vivo
[14] = AUC (0 to t) in dog at 5 mg/kg, po measured after 24 hrs by LC/MS method; format: ADME, organism-based, Canis lupus familiaris; design: time < 24 hr, dose 5 mg/kg, route oral; conditions: in vivo
[15] = Drug uptake in dog at 5 mg/kg, po measured at 24 hrs post dose by LC/MS method; format: ADME, organism-based, Canis lupus familiaris; conditions: in vivo, read-out: Drug uptake
[16] = Oral bioavailability in dog at 5 mg/kg measured after 24 hrs by LC/MS method; format: ADME, organism-based, Canis lupus familiaris; conditions: in vivo
[17] = system: Hepatitis C virus subtype 1a; assay: Selectivity ratio for EC90 for HCV genotype-1a NS5A Y93H mutant to EC90 for HCV genotype-1a NS5A
[18] = Selectivity ratio for EC90 for HCV genotype-2b NS5A harboring methionine at position 31 to EC90 for HCV genotype-1a NS5A
[19] = Selectivity ratio for EC90 for HCV genotype-3a NS5A to EC90 for HCV genotype-1a NS5A
[20] = Selectivity ratio for EC90 for HCV genotype-4a NS5A to EC90 for HCV genotype-1a NS5A
[21] = system: Hepatitis C virus subtype 1a; assay: Selectivity ratio for EC90 for HCV genotype-1a NS5A L31V mutant to EC90 for HCV genotype-1a NS5A

| Structure (SMILES) | EC90 (Huh-7 [1]) | EC90 [2] | EC90 (Huh-7 [3]) | EC90 [4] | EC90 (Huh-7 [5]) | EC90 (Huh-7 [6]) | Selectivity ratio [17] | Selectivity ratio [18] | also measured |
| --- | --- | --- | --- | --- | --- | --- | --- | --- | --- |
| COC(=O)N[C@H](C(=O)N1CCC[C@H]1c1ncc(-c2cc(F)c3c(c2)OC(c2ccc(C4CC4)s2)n2c-3cc3cc(-c4cnc([C@@H]5CCCN5C(=O)[C@@H](NC(=O)OC)C(C)C)[nH]4)ccc32)[nH]1)C(C)C (stereo partly drawn) | 0.003 nM | 0.11 nM | 0.16 nM | 0.02 nM | 0.007 nM | 0.009 nM | 37 | 53 to 200 | clearance [7]: 11 mL/min/kg; half-life [8]: 7 h; AUC at 24 h [9]: 1.1 µM·h; concentration at 24 h [10]: 16 nM; bioavailability [11]: 5%; clearance [12]: 1.5 mL/min/kg; half-life [13]: 10 h; AUC(0-t) at 24 h [14]: 10.6 µM·h; concentration at 24 h [15]: 134 nM; bioavailability [16]: 11%; Selectivity ratio [19]: 2; Selectivity ratio [20]: 3 |
| COC(=O)N[C@H](C(=O)N1CCC[C@H]1c1ncc(-c2ccc3c(c2)OC(c2ccc(Cl)s2)n2c-3cc3cc(-c4cnc([C@@H]5CCCN5C(=O)[C@@H](NC(=O)OC)C(C)C)[nH]4)ccc32)[nH]1)C(C)C (mixture of isomers) | 0.02 nM | 4 nM | 1 nM |  |  |  | 200 | 50 |  |
| CCc1ccc([C@@H]2Oc3cc(-c4cnc([C@@H]5CCCN5C(=O)[C@@H](NC(=O)OC)C(C)C)[nH]4)ccc3-c3cc4cc(-c5cnc([C@@H]6CCCN6C(=O)[C@@H](NC(=O)OC)C(C)C)[nH]5)ccc4n32)s1 | 0.005 nM | 3.4 nM | 0.25 nM |  |  |  | 680 | 50 |  |
| CCc1ccc([C@@H]2Oc3cc(-c4cnc([C@@H]5CCCN5C(=O)[C@@H](NC(=O)OC)C(C)C)[nH]4)cc(F)c3-c3cc4cc(-c5cnc([C@@H]6CCCN6C(=O)[C@@H](NC(=O)OC)C(C)C)[nH]5)ccc4n32)s1 | 0.003 nM | 0.06 nM | 0.9 nM | 0.067 nM | 0.002 nM | 0.003 nM | 20 | 300 | clearance [7]: 8 mL/min/kg; half-life [8]: 6.4 h; AUC at 24 h [9]: 0.7 µM·h; concentration at 24 h [10]: 17 nM; bioavailability [11]: 3%; clearance [12]: 1.7 mL/min/kg; half-life [13]: 15 h; AUC(0-t) at 24 h [14]: 13.8 µM·h; concentration at 24 h [15]: 172 nM; bioavailability [16]: 21%; Selectivity ratio [21]: 22; Selectivity ratio [19]: 1; Selectivity ratio [20]: 1 |
| CCOc1cccc([C@@H]2Oc3cc(-c4cnc([C@@H]5CCCN5C(=O)[C@@H](NC(=O)OC)C(C)C)[nH]4)ccc3-c3cc4cc(-c5cnc([C@@H]6CCCN6C(=O)[C@@H](NC(=O)OC)C(C)C)[nH]5)ccc4n32)c1 | 0.02 nM | 16 nM | 22 nM |  |  |  | 800 | 1100 |  |
| COC(=O)N[C@H](C(=O)N1CCC[C@H]1c1ncc(-c2cc(F)c3c(c2)O[C@@H](c2ccc4c(c2)OCCC4)n2c-3cc3cc(-c4cnc([C@@H]5CCCN5C(=O)[C@@H](NC(=O)OC)C(C)C)[nH]4)ccc32)[nH]1)C(C)C | 0.003 nM | 0.5 nM | 0.3 nM |  |  |  | 167 | 100 |  |
| COC(=O)N[C@H](C(=O)N1CCC[C@H]1c1ncc(-c2cc(F)c3c(c2)OC(c2cccs2)n2c-3cc3cc(-c4cnc([C@@H]5CCCN5C(=O)[C@@H](NC(=O)OC)C(C)C)[nH]4)ccc32)[nH]1)C(C)C (mixture of isomers) | 0.03 nM | 3 to 3.4 nM | 8 to 8.2 nM | 0.76 nM | 0.016 nM |  | 100 | 267 |  |
| COC(=O)N[C@H](C(=O)N1CCC[C@H]1c1ncc(-c2ccc3c(c2)OC(c2ccc(C4CC4)s2)n2c-3cc3cc(-c4cnc([C@@H]5CCCN5C(=O)[C@@H](NC(=O)OC)C(C)C)[nH]4)ccc32)[nH]1)C(C)C (stereo partly drawn) | 0.003 nM | 1.2 nM | 0.35 nM |  |  |  | 400 | 117 |  |
| COC(=O)N[C@H](C(=O)N1CCC[C@H]1c1ncc(-c2ccc3c(c2)O[C@@H](c2ccc(C4CC4)cc2)n2c-3cc3cc(-c4cnc([C@@H]5CCCN5C(=O)[C@@H](NC(=O)OC)C(C)C)[nH]4)ccc32)[nH]1)C(C)C | 0.004 nM | 8 nM | 1 nM |  |  |  | 1900 | 300 |  |
| COC(=O)N[C@H](C(=O)N1CCC[C@H]1c1ncc(-c2cc(F)c3c(c2)OC(c2cc(F)c(C4CC4)s2)n2c-3cc3cc(-c4cnc([C@@H]5CCCN5C(=O)[C@@H](NC(=O)OC)C(C)C)[nH]4)ccc32)[nH]1)C(C)C (stereo partly drawn) | 0.005 nM | 0.17 nM | 0.68 nM | 0.029 nM | 0.012 nM | 0.014 nM |  |  |  |
| COC(=O)N[C@H](C(=O)N1CCC[C@H]1c1ncc(-c2cc(F)c3c(c2)OC(c2cnc(C(F)F)s2)n2c-3cc3cc(-c4cnc([C@@H]5CCCN5C(=O)[C@@H](NC(=O)OC)C(C)C)[nH]4)ccc32)[nH]1)C(C)C (stereo partly drawn) | 0.002 nM | 0.056 nM | 0.069 nM | 0.003 nM | 0.004 nM | 0.002 nM |  |  |  |
| COC(=O)N[C@H](C(=O)N1CCC[C@H]1c1ncc(-c2cc(F)c3c(c2)OC(c2cnc(C4CC4)o2)n2c-3cc3cc(-c4cnc([C@@H]5CCCN5C(=O)[C@@H](NC(=O)OC)C(C)C)[nH]4)ccc32)[nH]1)C(C)C (stereo partly drawn) | 0.007 nM | 1.8 nM | 1.1 nM | 0.46 nM | 0.18 nM | 0.03 nM |  |  |  |
| COC(=O)N[C@H](C(=O)N1CCC[C@H]1c1ncc(-c2cc(F)c3c(c2)OC(c2ccc(C4CC4)s2)n2c-3cc3cc(-c4cnc([C@@H]5C[C@H]6C[C@H]6N5C(=O)[C@@H](NC(=O)OC)C(C)C)[nH]4)ccc32)[nH]1)C(C)C (stereo partly drawn) | 0.004 nM | 0.03 nM | 0.3 nM | 0.012 nM | 0.007 nM | 0.005 nM |  |  |  |
| COCc1ccc(C2Oc3cc(-c4cnc([C@@H]5CCCN5C(=O)[C@@H](NC(=O)OC)C(C)C)[nH]4)cc(F)c3-c3cc4cc(-c5cnc([C@@H]6CCCN6C(=O)[C@@H](NC(=O)OC)C(C)C)[nH]5)ccc4n32)s1 (stereo partly drawn) | 0.005 nM | 0.22 nM | 0.54 nM | 0.049 nM | 0.016 nM | 0.009 nM |  |  |  |
| CCOc1cccc([C@@H]2Oc3cc(-c4cnc([C@@H]5CCCN5C(=O)[C@@H](NC(=O)OC)C(C)C)[nH]4)cc(F)c3-c3cc4cc(-c5cnc([C@@H]6CCCN6C(=O)[C@@H](NC(=O)OC)C(C)C)[nH]5)ccc4n32)c1 | 0.01 nM | 2 nM | 8 nM |  |  |  | 200 | 800 |  |

Source: ChEMBL document CHEMBL3877294, “Discovery of Ruzasvir (MK-8408): A Potent, Pan-Genotype HCV NS5A Inhibitor with Optimized Activity against Common Resistance-Associated Polymorphisms” (J Med Chem, 2017)
